Patent US20110269790A1, “NOVEL THIENOPYRIDINES AS PHARMACOLOGICALLY ACTIVE AGENTS” (priority 2009, published 2011)
≈ marks a conversion by molar mass, not a printed value. Where two headings read alike, the source gives them in different places.

Assays:
[1] = tested on: A431 (Skin cancer) cell lines; assay: MTT assay, A431; type: cell-based; settings: Homo sapiens, A-431; MTT, 48 hrs; read-out: A431 cell lines IC50
Method: (§1) A431 (Skin cancer), Colo-205 (Colon cancer), A549 (Lung cancer) cell lines were obtained from National Center for Cell science (NCCS), Pune, India. DMEM (Dulbeccos Modified Eagles Medium), MTT [3-(4,5-dimethylthiazol-2-yl)-2,5-diphenyl tetrazolium bromide], Trypsin, EDTA were purchased from Sigma Chemicals Co (St. Louis, Mo.), Fetal bovine serum were purchased from Arrow labs, 96 well flat bottom tissue culture plates were purchased from Tarson.
(§2) A431, Colo-205, A549 cell lines were grown as adherent cells in DMEM media supplemented with 10% fetal bovine serum, 100 μg/ml penicillin, 200 μg/ml streptomycin, 2 mM L-glutamine, and culture was maintained in a humidified atmosphere with 5% CO2. Stock solution of 10 mg/ml was prepared for test molecules in DMSO. From the stock, various dilutions were made with sterile water to get required concentration. A431, Colo-205, A549 cell lines were seeded at a density of 1×10^4 cells (cell number was determined by Trypan blue exclusion dye method) per each well in 100 μl of DMEM supplemented with 10% FBS. 12 hrs after seeding, above media was replaced with fresh DMEM supplemented with 10% FBS. Then, 10 μl sample from above stock solutions were added to each well in triplicates which gives final concentration of 100, 50, 25, 10 μg/well. The above cells were incubated for 48 hrs at 37° C. with 5% CO2. After 48 hrs incubation the above media was replaced with 100 μl of fresh DMEM with out FBS and to this 10 μl of MTT (5 mg dissolved in 1 ml of PBS) was added and incubated for 3 hrs at 37° C. with 5% CO2. After 3 hrs of incubation, the above media was removed with multi channel pipette, then 200 μl of DMSO was added to each well and incubated at 37° C. for 15 min. Finally, the plate was read at 570 nm using spectrophotometer (Spectra Max, Molecular devices).

Colo-205 (Colon cancer) = assay: MTT assay, Colo-205; type: cell-based; settings: Homo sapiens, COLO 205; MTT, 48 hrs; read-out: Colo-205 IC50
Method: as §1, §2

[2] = tested on: crude intestinal α-glucosidase; assay: In-vitro mammalian (rat intestinal) α-glucosidase inhibition assay; type: biochemical; settings: for Mammalian α Glucosidase Inhibition (Mean ± S.E): highest concentration 5 mg/ml
From the text: (§3) Chemicals: α-Glucosidase [(EC 3.2.1.20) Type I: from bakers yeast], rat intestinal acetone powder (as a source of crude intestinal α-glucosidase), α-amylase [EC 3.2.1.1) Type VI B: from porcine pancreas], p-nitrophenyl α-D-glucopyranoside, 3,5-dinitro salicylic acid, soluble potato starch and 1-deoxyrojirimycine, were purchased from Sigma Chemical Co., St Louis, Mo., USA. Other chemicals of analytical grade were procured from indigenous manufacturers.
(§4) In-vitro a-Glucosidase Inhibition Assay: Yeast and intestinal a-glucosidase inhibitory activities were determined as per reported methods (Babu et al., 2004; Mc Dougall et al., 2005). Rat intestinal acetone powder in normal saline (100% w/v) was sonicated properly and the supernatant was used as a source of crude intestinal a-glucosidase after centrifugation. In brief, 20 μl, of test samples (100 mg/ml DMSO solution) were reconstituted in 100 μl of 100 mM-Phosphate buffer (pH 6.8) in a 96-well microplate and incubated with 50 μl yeast a-glucosidase (0.76 μ/ml in same buffer) or crude intestinal a-glucosidase for 5 min before 50-μl substrate (5 mM, […] prepared in same buffer) was added. Release of p-nitrophenyol was measured at 405 nm spectrophotometrically (Spectra Mas Plus 384, Molecular Device corporation, Sunnyvale, Calif., USA) 5 min after incubation with substrate, individual blank for test samples were prepared to correct background absorbance where the substrate was replaced with 50 μl of buffer. The control sample contained 20 μl DMSO in place of test samples. The percentage of enzyme inhibition was calculated as (A−B/A)×100 where A is represents the absorbance of the control without test samples, and B represents the absorbance in the presence of test samples. […] The IC50 values were calculated by applying logarithmic regression analysis from the mean inhibitory values.

Wistar rats = assay: Carrageenan induced paw edema model; type: in vivo, rat; settings: Rattus norvegicus; for change in vivo at 100 mg/kg: read-out: % Increase in Paw Volume; for inhibition in vivo at 100 mg/kg: read-out: % Inhibition (paw volume)
Method: Male Albino Wistar rats of 150-180 grams were used for the experiments.
Anti-inflammatory activity of test compounds was evaluated in Wistar rats employing the method of Winter et al (1963) and Diwan et al (1989). Male Wistar rats were used for the study. […] The different test compounds were administered to the animals in the test group at the dose of 100 mg/kg, by oral route. Animals in the standard group received Indomethacin at the dose of 10 mg/kg, by oral route. All test and standard compounds were administered as 1% gum acacia suspension. Rats in the control group received the vehicle solution without drugs. One hour after test drugs administration, rats in all the groups were challenged with 0.1 ml of 1% Carrageenan in the sub plantar region of right hind paw. A zero hour paw volume was measured for all the rats using digital plethysmometer (Ugo Basile, Italy) before the administration of carrageenan for all groups. Paw volumes were again measured 3 hrs after the challenge of Carrageenan. The percent inhibition of paw volume for each rat in treated groups was calculated by comparing with mean paw volume of control group and expressed as mean (±SE) percent inhibition of paw volume for each test. In a preliminary study the compounds that have shown good activity were evaluated for dose response study by using above procedure.

mice = assay: Adenosine mediated bronchoconstriction and lung inflammation in an allergic mouse model; type: in vivo; parameters: Total count: unit not given here; settings: BAL fluid cells; 100 mg/kg oral
Method: Thienopyridines were proven as potent cytotoxic and anti-inflammatory agents in the previous experimental results. In cytotoxic MTT assay, activity of these molecules may be due to the involvement of adenosine receptors. Further, to find the bronchodilatory activity of these moieties and to find the involvement of adenosine receptors in their action, non-invasive and invasive adenosine mediated bronchoconstriction and lung inflammation in an allergic mouse model was performed.
Male mice, 6-8 weeks of age, free of specific pathogens were obtained from National Institute of Nutrition. The animals were maintained on a ragweed-free diet. All experimental protocols used in this study were under a protocol approved by animal ethical committee. Sensitization was performed according to the modified procedure described by Fan et al, 2002. Mice were sensitized on days 1 and 6 with i.p. injections of ragweed allergen (200 μg/200 μl of water for injection). Non-sensitized control animals received only water for injection with the same volumes. Ten days after sensitization, the mice were placed in plexiglas chamber and challenged with 0.5% ragweed or with 0.9% saline as a control for twenty minutes both in the morning and evening for three days. Then mice were divided into different groups consisting of six animals each. The groups including a control without sensitization; a sensitized group and a standard group along with groups of the test molecules were separated. Twenty-four hours after last challenge with ragweed, the mice were given an oral dose of test molecules and theophylline (100 mg/kg body weight) as acacia suspension. Two hours after administration of the oral dose, the mice were challenged with adenosine solution (24 mg/ml). The variation in respiration was recorded after anaesthetizing them with pentobarbitone sodium (0.1 ml 200 mg/ml ip) using kymograph. Then, mice were sacrificed and trachea was cannulated to collect the bronchoalveolar lavage fluid. This was performed by pumping 1 ml phosphate buffered saline into lungs through tracheal cannula and collecting the sample. Analysis of BAL fluid was performed to get the cellular differentials. The BAL fluid was centrifugated at 1500 rpm for six minutes at room temparature. After removing the supernatant, BAL cells were resuspended in 1 ml of phosphate buffered saline. Total cells were then counted manually in a hemocytometer chamber. A differential count of at least 300 cells was made according to the standard morphologic criteria and results were mentioned in table.

A549 (Lung cancer) = assay: MTT assay, A549; type: cell-based; settings: Homo sapiens, A549; MTT, 48 hrs; read-out: A549 IC50
Method: as §1, §2

yeast α-glucosidase = target: T1, yeast α-glucosidase (Saccharomyces cerevisiae, UniProt P53341); assay: In-vitro yeast α-glucosidase inhibition assay; type: biochemical, bakers yeast
T1 construct: α-Glucosidase [(EC 3.2.1.20) Type I: from bakers yeast]
T1 sequence (P53341 whole entry): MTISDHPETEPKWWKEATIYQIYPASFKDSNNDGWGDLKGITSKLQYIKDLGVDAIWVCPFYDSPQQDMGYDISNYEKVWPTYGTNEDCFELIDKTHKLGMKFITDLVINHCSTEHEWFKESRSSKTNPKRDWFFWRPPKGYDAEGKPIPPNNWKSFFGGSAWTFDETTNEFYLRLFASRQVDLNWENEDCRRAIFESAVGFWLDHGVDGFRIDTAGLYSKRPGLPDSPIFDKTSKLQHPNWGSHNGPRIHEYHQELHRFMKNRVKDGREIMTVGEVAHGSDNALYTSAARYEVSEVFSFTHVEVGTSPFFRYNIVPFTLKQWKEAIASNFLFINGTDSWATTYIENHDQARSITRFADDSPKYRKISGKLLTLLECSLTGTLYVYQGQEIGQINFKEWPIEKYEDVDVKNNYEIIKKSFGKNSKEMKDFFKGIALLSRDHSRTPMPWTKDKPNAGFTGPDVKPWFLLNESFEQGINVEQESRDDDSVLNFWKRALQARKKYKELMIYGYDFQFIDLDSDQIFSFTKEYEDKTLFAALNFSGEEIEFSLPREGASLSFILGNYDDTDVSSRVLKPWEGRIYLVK
From the text: as §3, §4

[3] = target: T2, porcine pancreatic α-amylase (Sus scrofa, UniProt P00690); assay: α-Amylase inhibition assay; type: biochemical; settings: 10 mg per ml; a/b marks the respective control (Control-1 2.147, Control-2 3.429)
T2 construct: α-amylase [EC 3.2.1.1) Type VI B: from porcine pancreas]; purchased Sigma Chemical Co., St Louis, Mo., USA; host or cells: porcine pancreas (natural source)
T2 sequence (P00690 16-511): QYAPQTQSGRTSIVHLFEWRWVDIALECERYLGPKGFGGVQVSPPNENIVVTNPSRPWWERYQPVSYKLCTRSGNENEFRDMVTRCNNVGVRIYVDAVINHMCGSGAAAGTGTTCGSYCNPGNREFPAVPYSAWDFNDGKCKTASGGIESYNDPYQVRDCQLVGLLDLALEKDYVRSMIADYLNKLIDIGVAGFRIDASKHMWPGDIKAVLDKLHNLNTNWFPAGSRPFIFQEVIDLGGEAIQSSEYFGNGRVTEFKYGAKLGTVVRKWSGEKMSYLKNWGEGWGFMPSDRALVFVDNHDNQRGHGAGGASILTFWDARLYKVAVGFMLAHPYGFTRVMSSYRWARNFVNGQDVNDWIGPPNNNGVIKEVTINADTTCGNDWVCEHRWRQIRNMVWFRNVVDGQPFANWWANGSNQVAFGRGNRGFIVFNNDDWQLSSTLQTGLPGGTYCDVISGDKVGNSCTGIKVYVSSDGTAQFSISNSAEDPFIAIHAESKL
From the text: as §3
a-Amylase Inhibition Assay: The assay method was adopted from Ali et al. (2006) and modified accordingly to suite microplate reading. In brief, 40 μL of test samples (10 mg/mL DMSO) were reconstituted in 160 μL of 20 mM phosphate buffer (pH 6.9) containing 6.7 mM sodium chloride in 2 mL Eppendorf tubes and incubated with 200 μL of porcine pancreatic α-amylase) (4 U/mL prepared in ice cold distilled water) for 5 min. The reaction was started by the addition of 400-μL soluble potato starch solution (0.5% w/v in 20 mM phosphate buffer, pH 6.9). Exactly 3 min after incubation, 400 μL DNS color reagent (1.0 g of 3,5-dinitrosalicylic acid, 30 g of sodium potassium tartrate and 20 mL of 2 N NaOH to a final volume of 100 mL in distilled water) was added. Closed tubes were placed in a water bath (85-90° C.) for 10 min to develop color and cooled thereafter. 50 μL of reaction mixtures was diluted with 175 μL of distilled water in a 96-well microplate. α-Amylase activity was determined by measuring the absorbance of the mixture at 540 nm spectrophotometrically as above. Individual blanks were prepared to correct for the background absorbance due to test samples. In this case DNS solution was added in tubes before addition of substrate. The percentage inhibition of enzyme activity was calculated as above. All the tests were run in duplicate in this assay.

[4] = test compounds 100 mg/kg oral, Indomethacin 10 mg/kg oral, 3 hrs after Carrageenan

IC50 [1] [µg/mL]	IC50 (Colo-205 (Colon cancer)) [µg/mL]	Mammalian α-glucosidase inhibitory activity (in words) [2]	IC50 (A549 (Lung cancer)) [µg/mL]	melting point [°C]	Structure (SMILES)	Mammalian α Glucosidase Inhibition (Mean ± S.E) [2] [%]	change in vivo at 100 mg/kg (Wistar rats; [4]) [%]	inhibition in vivo at 100 mg/kg (Wistar rats; [4]) [%]	Differential count (%) Eosinophils (mice) [%]	Differential count (%) Lymphocytes (mice) [%]	Differential count (%) Monocytes (mice) [%]	Total count (mice)	change in vivo at 100 mg/kg (Wistar rats; po, 3 h) [%]	inhibition in vivo at 100 mg/kg (Wistar rats; po, 3 h) [%]	Yeast α-glucosidase enzyme inhibitory activity (in words) (yeast α-glucosidase)	Maltose released [3] [mg/mL]
33.8 (≈ 137 µM)	100 (≈ 406 µM)	moderate inhibitory activity	43.6 (≈ 177 µM)	220	Cc1sc2nc3c(c(N)c2c1C)CCC(C)C3 (stereo not drawn) [BN-3, 2,3,7-Trimethyl-5,6,7,8-tetrahydrothieno[2,3-b]quinolin-4-amine]	46.07 ± 0.9	81.4 ± 21	23.2 ± 5.15	14	75	15	14.5	–	–	–	–
–	–	–	–	–	Nc1c2c(nc3sc4c(c13)CCCCC4)CCCC2 [BN-19, 2,3,4,7,8,9,10,11-Octahydro-1H-cyclohepta[4,5]thieno[2,3-b]quinolin-12-Amine]	0.0 ± 0.0	–	–	10	80	10	11.5	90.4 ± 11.4	0	moderate inhibitory activity	3.282
